The source of these data is patent US20240018470A1, “METHOD OF MANIPULATING PLURIPOTENCY IN CELLS” (YALE UNIVERSITY, priority 2022, published 2024).

No end group written: not given here.

In experiment [1] the test system is hESCs. In words: hESC pluripotency marker qPCR. In kind it is cell-based, human. To be noted: 25 nM; OCT4 and SOX2 by day 2, all three genes on day 5. How it is done: hESCs were grown in mTeSR1 (STEMCELL Technologies) in tissue culture dishes coated with Matrigel (Corning; 1:200 in DMEM/F12) and kept at 37° C., 5% CO2. The cell lines used were ESI017 (ESIBIO) and H9. Cells were routinely passaged using dispase (STEMCELL Technologies) and tested for mycoplasma contamination and found negative. For rapamycin experiments, cells were grown in MEF-conditioned HUESM media supplemented with 20 ng/ml bFGF with or without 100 nM rapamycin, which the present study found to increase the survival of rapamycin treated cells compared to cells grown in mTeSR1.
For qPCR, hESCs were grown with or without ErgToxin (25 nM) for the indicated times. RNA collection and DNase treatment were performed using the RNAqueous®-Micro Total RNA Isolation Kit (AM1931) and cDNA was synthesized with the SuperScript Vilo cDNA Synthesis Kit (Fisher Scientific 11754-050). qPCR measurements were collected using SYBR Green reagent (LifeTech-4367659) on a Step OnePlus instrument (Applied Biosciences). Data were normalized using the housekeeping gene GAPDH. Primers for qPCR were: OCT4: 5′-[…]-3′ (SEQ ID NO:12), 5′-[…]-3′ (SEQ ID NO:13), SOX2: 5′-[…]-3′ (SEQ ID NO:14), 5′-[…]-3′ (SEQ ID NO:15), NANOG: 5′-[…]-3′ (SEQ ID NO:16), 5′-[…]-3′ (SEQ ID NO:17), GAPDH: 5′-[…]-3′ (SEQ ID NO:18), 5′-[…]-3′ (SEQ ID NO:19).
In general terms: Real-time PCR tracks product formation cycle by cycle.

Experiment [2] has as its system Xenopus embryos. In words: Gastrulation scoring (incomplete blastopore closure) in treated or kcnh6-depleted embryos. In kind it is in vivo, Xenopus tropicalis. To be noted: blastula/gastrula embryos treated stage 8 to stage 12, 50 nM. How it is done: All injections of Xenopus embryos were performed at the one-cell stage using a fine glass needle and Picospritzer system. A kcnh6 translation blocking (kcnh6 MO, 5′-[…]-3′, SEQ ID NO:1) and a scrambled morpholino oligonucleotide were obtained from Gene Tools LLC and injected at 10 ng to deplete kcnh6 or as a control, respectively. CRISPR sgRNAs for kcnh6 targeted either exon 3 or exon 4 based on the v7.1 gene model of the X. tropicalis genome (CRex3: 5′-[…]-3′, SEQ ID NO:2 and CRex4: 5′-[…]-3′, SEQ ID NO:3). CRISPR sgRNAs for cacna1c (5′-[…]-3′, SEQ ID NO:4) and cacna1g (5′-[…]-3′, SEQ ID NO:5) were designed from the v7.1 model of the Xenopus tropicalis genome. For F0 CRISPR knockdown, embryos were injected with 1.5 ng Cas9 Protein (PNA-Bio) and 400 pg of targeting sgRNA and raised to desired stages. […] Full length human KCNH6 (NM 030779.3; cloned in pCS107), GCaMP6 (subcloned in pCSDest) and mCherry cDNAs (Addgene #34935; in pCS2+), were used to generate capped mRNAs in vitro by first linearizing with appropriate restriction enzymes and then transcribing with the mMessage machine kit (Ambion). mRNAs were injected at 3 pg (human KCNH6), 150 pg (GCaMP6) and 150 pg (mCherry) per embryo. Embryos were raised at 21° C. to allow time for sufficient expression levels at blastula/gastrula stages.
(§1) Normal embryonic medium is 1/9× modified Ringer's (MR) containing 11 mM NaCl, 0.2 mM KCl, 0.2 mM CaCl2), 0.1 mM Mg2Cl and 0.55 mM HEPES. To allow Ergtoxin to penetrate the embryos, the present study manually removed the vitelline envelope of stage 8 embryos and incubated embryos in 1/9×MR containing 50 nM Ergtoxin (Alomone STE-450) until stage 12. Embryos were then transferred back into 1/9×MR lacking Ergtoxin to develop until stage 45 in order to score organ situs. Barium chloride was applied into the medium at 20 mM and embryos were thoroughly rinsed in 1/9×MR after each incubation period for further development in Ba2+-free medium. For extracellular K^+ manipulations, the KCl concentration in 1/9×MR was modified from 0.2 mM (normal) to 20 mM (high) or 0 mM (low). The ionophore valinomycin (ACROS) and L-type VGCC blocker Nifedipine (ACROS) were diluted in DMSO as stock solutions and applied to embryos in 1/9×MR at 2 nM and 10 μM respectively. Treatments performed during gastrulation were applied from stage 8 through stage 12, and embryos were then rinsed thoroughly and returned into 1/9×MR. For rapamycin, the present study created a standard stock solution of 50 mg/ml in DMSO. The stock solution was diluted 1:2500 in the appropriate embryonic media (final 20 μg/ml). Embryos were treated at stage 7 and then fixed at stage 11 for in situ hybridization.
(§2) In experiments where embryos were evaluated for phenotypes and scored (gastrulation, left-right patterning, in situ hybridizations) the present study carried out three to five biological replicates and Fisher's exact test to evaluate statistical significance. The animal cap experiment was performed twice with a total score of four to eight animal caps per experiment. For the calcium transient analyses, data was collected from three to five embryos in each experiment in three independent experiments, and statistical analyses on GCaMP/mCherry fluorescence intensity as well as Ca^2+ transient area were performed using student's t-test. For whole cell electrophysiological recordings, three to five embryos (two cells each) were examined for their membrane potential and statistical significance was tested by student's t-test. Graphs were designed using GraphPad Prism software. Models were created with BioRender.com.

For experiment [3], the system named is Xenopus embryos. The experiment in a line: Organ situs (left-right patterning) scoring in stage 45 tadpoles. In kind it is in vivo, Xenopus tropicalis. To be noted: blastula/gastrula embryos treated stage 8 to stage 12, 50 nM. How it is done: Stage 45 Xenopus embryos were paralyzed with benzocaine or tricaine and scored with a light stereomicroscope. Cardiac looping was determined by position of the outflow tract; D-loop: rightward, L-loop: leftward; A-loop: midline. Normal intestinal looping was scored as counter-clockwise rotation of the gut, while abnormal intestinal looping was scored as completely inverse gut rotation (clockwise) or complete lack of looping (un-looped). While a completely inverted gut rotation is clearly an abnormality of LR patterning, an unlooped gut is less clear so the present study only considered an unlooped gut as abnormal situs when combined with abnormal placement (left-sided or midline) of the gall bladder. To quantify total abnormal organ situs, each tadpole was counted only once, regardless of whether multiple organs were affected.
as §1, §2

Experiment [4] has as its system hESCs. The experiment in a line: hESC pluripotency marker immunofluorescence. In kind it is cell-based, human. How it is done:
hESCs were grown in mTeSR1 ([…] Technologies) in tissue culture dishes coated with Matrigel (Corning; 1:200 in DMEM/F12) and kept at 37° C., 5% CO2. The cell lines used were ESI017 (ESIBIO) and H9.
(§3) Cells were dissociated with accutase and seeded onto 8 well imaging slides (ibidi 80826) at a density of 4-6×10^4/cm^2. Cells were seeded and maintained in Rock-inhibitor Y27672 (MCE; 10 μM) to increase survival and the uniformity of response. Treatments with 1 mM BaCl2 or 10 or 25 nM Ergtoxin or 100 nM rapamycin were initiated 4 hours after seeding. Differentiation was initiated 24 hours after seeding where indicated. To initiate differentiation, the media was replenished with/without BaCl2 or Ergtoxin and treated with the indicated growth factors or small molecules. Cells were incubated for the indicated times without media change before fixation.
Cells were fixed for 30 min in 4% paraformaldehyde, rinsed twice with DPBS (without Ca^2+ and Mg^2+, denoted DPBS^−/−), and blocked for 30 min at room temperature. The blocking solution contained 3% donkey serum and 0.1% Triton X-100 in 1×DPBS^−/−. After blocking, the cells were incubated with primary antibodies at room temperature for 2 hours. Antibodies and concentrations are listed below. Cells were washed three times with DPBST (1×DPBS^−/− with Tween 20) and incubated with secondary antibodies (AlexaFluor 488 A21206, AlexaFluor 555 A31570 and A21432, and AlexaFluor 647 A31571, Thermo Fisher; 1:500) and DAPI for 30 min at room temperature. After secondary antibody incubation, samples were washed in DPBST and then DPBS at room temperature.
Images were acquired using a 20×, NA 0.75 objective on an Olympus IX83 inverted epifluorescence microscope or an Olympus/Andor spinning disk confocal microscope. Cell segmentation was performed using ilastik software. This segmentation was cleaned (to remove debris and to separate merged cells) and mean nuclear protein intensities as well as standard errors were quantified using a custom MATLAB code. Nuclear intensities were normalized by DAPI to correct for intensity variation due to optics. […]

Experiment [5] concerns hESCs. In words: hESC BMP4-induced differentiation, pluripotency marker immunofluorescence. In kind it is cell-based, human. To be noted: BMP4 50 ng/ml, at 12 hours; similar trend in NANOG. As to the method:
as §3
Cells were fixed for 30 min in 4% paraformaldehyde, rinsed twice with DPBS (without Ca^2+ and Mg^2+, denoted DPBS^−/−), and blocked for 30 min at room temperature. The blocking solution contained 3% donkey serum and 0.1% Triton X-100 in 1×DPBS^−/−. After blocking, the cells were incubated with primary antibodies at room temperature for 2 hours. Antibodies and concentrations are listed below. […]
Images were acquired using a 20×, NA 0.75 objective on an Olympus IX83 inverted epifluorescence microscope or an Olympus/Andor spinning disk confocal microscope. […] This segmentation was cleaned (to remove debris and to separate merged cells) and mean nuclear protein intensities as well as standard errors were quantified using a custom MATLAB code. […]

As to “Ergtoxin: a scorpion peptide that specifically acts as a pore blocker of the KCNH channel family (Alomone STE-450) (DRDSCVDKSRCAKYGYYQECQDCCKNAGHNGGTCMFFKCKCA; ends and bridges not checked; cysteine pairing not given here; UniProt Q86QT3 21-62, looked up)”, the “OCT4, SOX2 and NANOG transcript level” value in the experiment on hESCs [1] is reported as “upregulation of these genes at the transcript level”. The gastrulation defects entry in the experiment on Xenopus embryos [2] is “identical gastrulation and LR defects”. Also, the LR defects entry with Xenopus embryos [3] is “identical gastrulation and LR defects”. In addition, in the experiment on hESCs [4] (25 nM Ergtoxin with 100 nM rapamycin), the “effect on pluripotency markers in the presence of rapamycin” value was “no effect”. Also, the “pluripotency markers OCT4 and SOX2” value with hESCs [4] (hESCs grown for two days, 25 nM Ergtoxin or 1 mM Barium, immunostaining and qPCR) is recorded as “modest but significant elevation”. The “downregulation of pluripotency markers such as SOX2” value in the experiment with hESCs [5] is reported as “significant delay”.
